EPA's CvTdb concentration-time database

Experiments:
[1] = system: Rat; test: concentration in plasma after dosing; conditions: dosed: Fluorotelomer alcohol 8+2, 40 mg/kg, iv, Female, Harlan Sprague-Dawley
[2] = system: Rat; test: concentration in plasma after dosing; conditions: dosed: Fluorotelomer alcohol 8+2, 24 mg/kg, oral, Male, Harlan Sprague Dawley
[3] = system: Rat; test: concentration in plasma after dosing; conditions: dosed: Fluorotelomer alcohol 8+2, 12 mg/kg, oral, Male, Harlan Sprague Dawley
[4] = system: Rat; test: concentration in plasma after dosing; conditions: dosed: Wyeth-14643, 2.0 mg/kg, iv, Male, Sprague-Dawley
[5] = system: Rat; test: concentration in plasma after dosing; conditions: 0.5 h; dosed: Di-n-butyl phthalate; 100 mg/kg; oral; Male; Sprague-Dawley
[6] = system: Rat; test: concentration in plasma after dosing; conditions: 10 h; dosed: Di-n-butyl phthalate; 100 mg/kg; oral; Male; Sprague-Dawley
[7] = system: Rat; test: concentration in plasma after dosing; conditions: 5 min; dosed: Di-n-butyl phthalate; 50 mg/kg; oral; Male; Sprague-Dawley
[8] = system: Rat; test: concentration in plasma after dosing; conditions: dosed: dichloroacetic acid, 100 mg/kg, oral, Male, F344
[9] = system: Rat; test: concentration in plasma after dosing; conditions: 5 min; dosed: dichloroacetic acid; 10 mg/kg; iv; Male; F344
[10] = system: Rat; test: concentration in plasma after dosing; conditions: 2 h; dosed: dichloroacetic acid; 60 mg/kg; iv; Female; Harlan Sprague-Dawley
[11] = system: rat; test: concentration in plasma after dosing; negative times count back from the end of exposure; conditions: dosed: trichloroethylene, inhalation, duration: 4 hr, female, F344
[12] = system: Rat; test: concentration in liver after dosing; conditions: 1848 h; dosed: Perfluorodecanoic acid; 10 mg/kg; oral; Female; Harlan Sprague Dawley
[13] = system: Rat; test: concentration in liver after dosing; conditions: 1848 h; dosed: Perfluorodecanoic acid; 10 mg/kg; oral; Female; Harlan Sprague Dawley; remark: listed apart in the source
[14] = system: Rat; test: concentration in liver after dosing; conditions: 24 h; dosed: Perfluorodecanoic acid; 10 mg/kg; oral; Female; Harlan Sprague Dawley
[15] = system: Rat; test: concentration in plasma after dosing; conditions: dosed: Perfluorodecanoic acid, 2 mg/kg, oral, Male, Harlan Sprague Dawley
[16] = system: Rat; test: concentration in kidney after dosing; conditions: 1 h; dosed: Perfluorodecanoic acid; 10 mg/kg; oral; Female; Harlan Sprague Dawley
[17] = system: Rat; test: concentration in plasma after dosing; conditions: dosed: Perfluorodecanoic acid, 2 mg/kg, oral, Male, Harlan Sprague Dawley; remark: listed apart in the source
[18] = system: Rat; test: concentration in plasma after dosing; conditions: dosed: Perfluorodecanoic acid, 2 mg/kg, iv, Male, F344
[19] = system: Rat; test: concentration in liver after dosing; conditions: 2 h; dosed: Thiodiglycolic Acid; 20 mg/kg; iv; Female; Harlan Sprague Dawley
[20] = system: Rat; test: concentration in liver after dosing; conditions: 8 h; dosed: Thiodiglycolic Acid; 20 mg/kg; iv; Female; Harlan Sprague Dawley
[21] = system: Rat; test: concentration in liver after dosing; conditions: 6.667 h; dosed: Thiodiglycolic Acid; 20 mg/kg; iv; Female; Harlan Sprague Dawley
[22] = system: Rat; test: concentration in liver after dosing; conditions: 20 min; dosed: Thiodiglycolic Acid; 20 mg/kg; iv; Female; F344
[23] = system: Rat; test: concentration in heart after dosing; conditions: 1 h; dosed: Thiodiglycolic Acid; 20 mg/kg; iv; Female; Harlan Sprague Dawley
[24] = system: Rat; test: concentration in liver after dosing; conditions: 20 min; dosed: Thiodiglycolic Acid; 20 mg/kg; iv; Female; Harlan Sprague Dawley
[25] = system: Rat; test: concentration in liver after dosing; conditions: 4 h; dosed: Thiodiglycolic Acid; 20 mg/kg; iv; Female; Harlan Sprague Dawley
[26] = system: Rat; test: concentration in liver after dosing; conditions: 8 h; dosed: Thiodiglycolic Acid; 20 mg/kg; iv; Female; Harlan Sprague Dawley; remark: listed apart in the source
[27] = system: Rat; test: concentration in plasma after dosing; conditions: 10 min; dosed: Thiodiglycolic Acid; 20 mg/kg; iv; Male; F344
[28] = system: Rat; test: concentration in plasma after dosing; conditions: 22 h; dosed: Primidone; 80 mg/kg; oral; Female; F344
[29] = system: Rat; test: concentration in plasma after dosing; conditions: 22 h; dosed: Primidone; 30 mg/kg; oral; Male; F344
[30] = system: Rat; test: concentration in liver after dosing; conditions: 10 min; dosed: Bis 2-Chloroethoxy Methane; 20 mg/kg; iv; Female; F344
[31] = system: Rat; test: concentration in plasma after dosing; conditions: 5 h; dosed: Bis 2-Chloroethoxy Methane; 20 mg/kg; iv; Male; F344
[32] = system: Rat; test: concentration in plasma after dosing; conditions: 4 h; dosed: Bis 2-Chloroethoxy Methane; 40 mg/kg; iv; Male; Harlan Sprague Dawley
[33] = system: Rat; test: concentration in thymus after dosing; conditions: 3 h; dosed: Bis 2-Chloroethoxy Methane; 20 mg/kg; iv; Female; F344

OCCC(F)(F)C(F)(F)C(F)(F)C(F)(F)C(F)(F)C(F)(F)C(F)(F)C(F)(F)F [Fluorotelomer alcohol 8+2]
Conditions | concentration in plasma [ng/mL]
[1], 0.75 h | 2220
[1], 12 h | 28.7
[2], 5 min | 6.79
[2], 9 h | 23.5
[3], 3 h | 147
[3], 5 min | 2.04

Cc1cccc(Nc2cc(Cl)nc(SCC(=O)O)n2)c1C
[4]
Conditions | concentration in plasma [ng/mL]
0.5 h | 5100
3 h | 342

CCCCOC(=O)c1ccccc1C(=O)O [Mono-n-butyl phthalate]
Conditions | concentration in plasma [ng/mL]
[5] | 29700
[6] | 2010
[7] | 2400

O=C(O)C(Cl)Cl [dichloroacetic acid]
[8]
Conditions | concentration in plasma [ng/mL]
8 h | 25000
20 min | 15900

Conditions | concentration in plasma [ng/mL]
[9] | 12400
[10] | 1170

O=C(O)C(Cl)(Cl)Cl [trichloroacetic acid]
[11]
Conditions | concentration in plasma [ng/mL]
0.2413 h, 600.4 ppm | 25200
0.5005 h, 600.4 ppm | 28200
0.963 h, 600 ppm | 24500
2.113 h, 600 ppm | 33800
4.901 h, 600.4 ppm | 36600
5.077 h, 600 ppm | 46200
20.89 h, 600.4 ppm | 8380
21.02 h, 600 ppm | 25300
28.48 h, 600.4 ppm | 3970
29.96 h, 600 ppm | 14100
30 s, 600 ppm | 21100
44.93 h, 600.4 ppm | 1220
45.37 h, 600 ppm | 8190
241 s, 600.4 ppm | 15900

concentration in plasma [ng/mL], [11], during exposure
Conditions | -3.75 h | -3.292 h | -0.5889 h
600 ppm | 5790 | – | –
600.4 ppm | – | 1380 | 15300

O=C(O)C(F)(F)C(F)(F)C(F)(F)C(F)(F)C(F)(F)C(F)(F)C(F)(F)C(F)(F)C(F)(F)F [Perfluorodecanoic acid]
Conditions | concentration in kidney [ng/g] | concentration in liver [ng/g]
[12] | – | 26000
[13] | – | 27400
[14] | – | 139000
[16] | 22800 | –

Conditions | concentration in plasma [ng/mL]
[15], 0.5 h | 1690
[15], 24 h | 6460
[15], 1848 h | 968
[17], 12 h | 7480
[17], 1200 h | 1470
[18], 1 h | 5930
[18], 528 h | 2060
[18], 3360 h | 272

O=C(O)CSCC(=O)O [Thiodiglycolic Acid]
Conditions | concentration in heart [ng/g] | concentration in liver [ng/g] | concentration in plasma [ng/mL]
[19] | – | 25500 | –
[20] | – | 29000 | –
[21] | – | 7100 | –
[22] | – | 162000 | –
[23] | 2560 | – | –
[24] | – | 47100 | –
[25] | – | 7460 | –
[26] | – | 60900 | –
[27] | – | – | 34600

CCC1(c2ccccc2)C(=O)NC(=O)NC1=O [Phenobarbital]
Conditions | concentration in plasma [ng/mL]
[28] | 1710
[29] | 1030

ClCCOCOCCCl [Bis 2-Chloroethoxy Methane]
Conditions | concentration in liver [ng/g] | concentration in plasma [ng/mL] | concentration in thymus [ng/g]
[30] | 973 | – | –
[31] | – | 31 | –
[32] | – | 162 | –
[33] | – | – | 448
